Measurements from patent publication US20220193060A1, “Inhibition of IL-1 Induced Inflammation” (THIOLAB, LLC., priority 2019, published 2022).
“Also recorded” adds a separate entry of the source.

How the values were obtained:
IL-1β = IL-1β ELISA, PMA-treated THP-1 cells stimulated with IFNγ and LPS; assay type: cell-based, human; settings: for Ave IL-Ib 1/10 Avg / Ave IL-Ib 1/10 Rep 1 / Ave IL-Ib 1/10 Rep 2 / Ave IL-Ib 2/28 Rep 1 / Ave IL-Ib 2/28 Rep 2 / Ave IL-Ib 2/28 Rep 3 / IL-1β Relative %: THP-1
Experimental: Methodology: The study included replicated tests of IL-1β levels with and without CPDS, as well as reference testing of untreated cells and cells treated with lactoferrin and clobetasol. A third test was conducted of IL-1 receptor […] (IL-1RA) receptor, to assist in distinguishing whether reductions in IL-1β levels were associated with secretion or receptor blocking (via the receptor antagonist). Cell viability studies were conducted for both sets of tests. Each of the tests used an ELISA model with the following protocols. 1. THP-1 cells were grown in (RPMI+10% FBS, 10 mM HEPES, 1 mM Sodium Pyruvate, and 0.05 mM 2-Mecaptpethanol) to P8. 2. Cells were plated at 30,000 cells per well in 120 ul with Media+20 ng/ml PMA+2× Genta. 3. […] Cells were treated according to plan below. 5. Cells were incubated for three more days at 37° C. and 5% CO2. 6. Cell supernatant were collected and ELISA was measured for IL-1RA, IL-1α, and IL-1β. 7. Plate was read at 490 nm until O.D reached 1.5. Day 1—1. THP-1+20 ng/ml PMA 30,000 cells per well 120 uL Day 3—1. Add Compound at 4× in 60 uL. Incubate for 2 hours. CPDS—800 uM (200 uM Final), lactoferrin—800 ug/mL (200 ug/ml Final) clobetasol −40 ng/mL (10 ng/mL Final). 2. […] Add 30 uL LPS at 8×—20 ng/ml (2.5 ng/ml final) in 30 uL (Wells 2-10) 4. Incubate for 3 days. Day 6—1. Collect 80 ul of sample 2 times and freeze for ELISA. 2. Develop with 15 uL of Substrate and read at 490 nm until plate reaches 1.5 OD. THP-1 is a spontaneously immortalized monocyte-like cell line, derived from the peripheral blood of a childhood case of acute monocytic leukemia, which has been extensively used to study monocyte/macrophage functions, mechanisms, signaling pathways, and nutrient and drug transport. This cell line has become a common model to estimate modulation of monocyte and macrophage activities.

IL-1RA = assay: human IL-1RA (receptor antagonist) ELISA, THP-1 supernatant; assay type: cell-based
Experimental: Methodology: The study included replicated tests of IL-1β levels with and without CPDS, as well as reference testing of untreated cells and cells treated with lactoferrin and clobetasol. A third test was conducted of IL-1 receptor […] (IL-1RA) receptor, to assist in distinguishing whether reductions in IL-1β levels were associated with secretion or receptor blocking (via the receptor antagonist). Cell viability studies were conducted for both sets of tests. 1. THP-1 cells were grown in (RPMI+10% FBS, 10 mM HEPES, 1 mM Sodium Pyruvate, and 0.05 mM 2-Mecaptpethanol) to P8. 2. Cells were plated at 30,000 cells per well in 120 ul with Media+20 ng/ml PMA+2× Genta. 3. […] Cells were treated according to plan below. 5. Cells were incubated for three more days at 37° C. and 5% CO2. 6. Cell supernatant were collected and ELISA was measured for IL-1RA, IL-1α, and IL-1β. 7. Plate was read at 490 nm until O.D reached 1.5. In order to determine whether the reduction in IL-1β was from blocking of secretion or from blocking of the receptor, a human IL-1RA (receptor antagonist) ELISA test was performed.

[1] = CPDS 1.6 uM + 10 ng/ml IFNy + 2.5 ng/ml LPS
[2] = CPDS 3.1 uM + 10 ng/ml IFNy + 2.5 ng/ml LPS
[3] = CPDS 6.3 uM + 10 ng/ml IFNy + 2.5 ng/ml LPS
[4] = CPDS 12.5 uM + 10 ng/ml IFNy + 2.5 ng/ml LPS
[5] = CPDS 25.0 uM + 10 ng/ml IFNy + 2.5 ng/ml LPS
[6] = CPDS 50.0 uM + 10 ng/ml IFNy + 2.5 ng/ml LPS
[7] = CPDS 100.0 uM + 10 ng/ml IFNy + 2.5 ng/ml LPS
[8] = CPDS 200.0 uM + 10 ng/ml IFNy + 2.5 ng/ml LPS

`O=C(O)c1ccc(SSc2ccc(C(=O)O)cn2)nc1` [CPDS, 6,6′-dithiodinicotinic acid] was tested, and the “neutralization of production of IL-1β in human cells” value (IL-1β; 25 μM) was “near neutralization”, the “Ave IL-Ib 1/10 Avg” value (IL-1β; [1]) was 0.19 ng/mL and the “Ave IL-Ib 1/10 Rep 1” value (IL-1β; [1]) was 0.19 ng/mL. The “Ave IL-Ib 1/10 Rep 2” value (IL-1β; [1]) was 0.18 ng/mL, the “Ave IL-Ib 2/28 Rep 1” value (IL-1β; [1]) was 0.32 ng/mL and the “Ave IL-Ib 2/28 Rep 2” value (IL-1β; [1]) was 0.29 ng/mL. The “Ave IL-Ib 2/28 Rep 3” value (IL-1β; [1]) was 0.30 ng/mL, the “IL-1β Relative %” value (IL-1β; [1]) was 114.2% and the “Ave IL-Ib 1/10 Avg” value (IL-1β; [2]) was 0.19 ng/mL. For the same compound, the “Ave IL-Ib 1/10 Rep 1” value (IL-1β; [2]) was 0.21 ng/mL, the “Ave IL-Ib 1/10 Rep 2” value (IL-1β; [2]) was 0.17 ng/mL and the “Ave IL-Ib 2/28 Rep 1” value (IL-1β; [2]) was 0.30 ng/mL. The “Ave IL-Ib 2/28 Rep 2” value (IL-1β; [2]) was 0.26 ng/mL, the “Ave IL-Ib 2/28 Rep 3” value (IL-1β; [2]) was 0.28 ng/mL and the “IL-1β Relative %” value (IL-1β; [2]) was 105.2%. For the same compound, the “Ave IL-Ib 1/10 Avg” value (IL-1β; [3]) was 0.15 ng/mL, the “Ave IL-Ib 1/10 Rep 1” value (IL-1β; [3]) was 0.15 ng/mL and the “Ave IL-Ib 1/10 Rep 2” value (IL-1β; [3]) was 0.14 ng/mL. The “Ave IL-Ib 2/28 Rep 1” value (IL-1β; [3]) was 0.23 ng/mL, the “Ave IL-Ib 2/28 Rep 2” value (IL-1β; [3]) was 0.24 ng/mL and the “Ave IL-Ib 2/28 Rep 3” value (IL-1β; [3]) was 0.24 ng/mL. For the same compound, the “IL-1β Relative %” value (IL-1β; [3]) was 88.7%, the “Ave IL-Ib 1/10 Avg” value (IL-1β; [4]) was 0.08 ng/mL and the “Ave IL-Ib 1/10 Rep 1” value (IL-1β; [4]) was 0.09 ng/mL. For the same compound, the “Ave IL-Ib 1/10 Rep 2” value (IL-1β; [4]) was 0.06 ng/mL, the “Ave IL-Ib 2/28 Rep 1” value (IL-1β; [4]) was 0.13 ng/mL and the “Ave IL-Ib 2/28 Rep 2” value (IL-1β; [4]) was 0.11 ng/mL. The “Ave IL-Ib 2/28 Rep 3” value (IL-1β; [4]) was 0.12 ng/mL, the “IL-1β Relative %” value (IL-1β; [4]) was 45.8% and the “Ave IL-Ib 1/10 Avg” value (IL-1β; [5]) was 0.04 ng/mL. For the same compound, the “Ave IL-Ib 1/10 Rep 1” value (IL-1β; [5]) was 0.05 ng/mL, the “Ave IL-Ib 1/10 Rep 2” value (IL-1β; [5]) was 0.03 ng/mL and the “Ave IL-Ib 2/28 Rep 1” value (IL-1β; [5]) was 0.04 ng/mL. For the same compound, the “Ave IL-Ib 2/28 Rep 2” value (IL-1β; [5]) was 0.03 ng/mL, the “Ave IL-Ib 2/28 Rep 3” value (IL-1β; [5]) was 0.04 ng/mL and the “IL-1β Relative %” value (IL-1β; [5]) was 13.7%. For the same compound, the “Ave IL-Ib 1/10 Avg” value (IL-1β; [6]) was 0.01 ng/mL, the “Ave IL-Ib 1/10 Rep 1” value (IL-1β; [6]) was 0.01 ng/mL and the “Ave IL-Ib 1/10 Rep 2” value (IL-1β; [6]) was 0.01 ng/mL. For the same compound, the “Ave IL-Ib 2/28 Rep 1” value (IL-1β; [6]) was 0.02 ng/mL, the “Ave IL-Ib 2/28 Rep 2” value (IL-1β; [6]) was 0.01 ng/mL and the “Ave IL-Ib 2/28 Rep 3” value (IL-1β; [6]) was 0.02 ng/mL. The “IL-1β Relative %” value (IL-1β; [6]) was 6.1%, the “Ave IL-Ib 1/10 Avg” value (IL-1β; [7]) was 0.01 ng/mL and the “Ave IL-Ib 1/10 Rep 1” value (IL-1β; [7]) was 0.01 ng/mL. For the same compound, the “Ave IL-Ib 1/10 Rep 2” value (IL-1β; [7]) was 0.01 ng/mL, the “Ave IL-Ib 2/28 Rep 1” value (IL-1β; [7]) was 0.03 ng/mL and the “Ave IL-Ib 2/28 Rep 2” value (IL-1β; [7]) was 0.01 ng/mL. The “Ave IL-Ib 2/28 Rep 3” value (IL-1β; [7]) was 0.02 ng/mL, the “IL-1β Relative %” value (IL-1β; [7]) was 8.2% and the “Ave IL-Ib 1/10 Avg” value (IL-1β; [8]) was 0.01 ng/mL. The “Ave IL-Ib 1/10 Rep 1” value (IL-1β; [8]) was 0.01 ng/mL, the “Ave IL-Ib 1/10 Rep 2” value (IL-1β; [8]) was 0.01 ng/mL and the “Ave IL-Ib 2/28 Rep 1” value (IL-1β; [8]) was 0.02 ng/mL. For the same compound, the “Ave IL-Ib 2/28 Rep 2” value (IL-1β; [8]) was 0.02 ng/mL, the “Ave IL-Ib 2/28 Rep 3” value (IL-1β; [8]) was 0.02 ng/mL and the “IL-1β Relative %” value (IL-1β; [8]) was 6.8%. For the same compound, the “ability of IFN-γ to stimulate the production of IL-1β” value (IL-1β; FIG. 1, clinically obtainable levels of CPDS) was “markedly reduce”, the “levels of IL-1β” value (IL-1β; FIG. 2, in the presence of LPS) was “substantially reduce” and the “secretion of IL-1β blocked” value (IL-1β; concentration as low as 50 uM CPDS) was 94%. The “neutralization of IL-1β” value (IL-1β; concentrations of 12.5 to 200 μM) was “complete neutralization”, the “reduction of measured IL-1β levels” value (IL-1β; concentrations of 12.5 to 200 μM, both tests) was 92-99% and the “neutralization of production of IL-1β in human cells” value (IL-1β; concentrations ranging from 50-200 μM) was “completely neutralize”. For the same compound, the “reduction of IL-1RA” value (IL-1RA; 100 μM) was 60%, the “reduction of IL-1RA” value (IL-1RA; 200 μM) was 76% and the “effect on IL-1RA production” value (IL-1RA; all concentrations lower than 100 μM) was “did not affect; also recorded: no effect”.
